In patent US11137396B2, “In vitro assays for assessing cell aging” (METAFORA BIOSYSTEMS, priority 2014, dated 2021):

Test system: hMSCs derived from ES cells
Experiment: XPR1/Glut1 ratio in senescence accelerated-model induced by mitomycin C (RBD labelling, flow cytometry)
Format: cell-based, human
Settings: 1 or 10 μg/mL MMC for 3 hours, then 4 additional days; ES-derived hMSC; FIG. 5
Experimental: 80% confluent hMSCs derived from ES cells were treated for 3 hours with 1 or 10 μg/mL of mitomycin C (MMC, Sigma) or none (control cells). After the pulse of MMC, the cells were washed twice with PBS, detached with TrypLE Express for 5 minutes à 37° C. and re-plated in flasks for 4 additional days at the end of which the cells were detached for RBD labelling and the doubling time (h) was determined by counting.
3·10^4 cells were used for each binding and were transferred into a 96-well V-shape microplate. RBDs were premixed pairwise (Glut1.RBD.mouseFc and Xeno.RBD.rabbitFc) in culture medium containing 0.1% sodium azide and 1 mM EDTA. RBDs were added to hMSCs and incubated at 37° C. for 20 minutes. Cells were washed once with buffer B (PBS/2% FCS/0.1% sodium azide/1 mM EDTA) and then incubated with Alexa Fluor 647 goat anti-rabbit IgG (Life Technologies, 1/1 000) and R-PE goat anti-mouse IgG1 (Life technologies, 1/100) in buffer B. After 30 minutes of incubation at 4° C. in the dark, the cells were washed twice and resuspended in buffer B before flow cytometry analysis. Fluorescent signals were acquired on a FACSVerse flow cytometer (BD Biosciences) with 405, 488 and 640 nm excitation, and data analysis was performed using Flowjo software (Tree Star Inc.).
“Fluorescence minus One” controls were used to establish background level in RBD channels (R-PE and AF647). […]

SMILES: CO[C@@]12[C@H](COC(N)=O)C3=C(C(=O)C(C)=C(N)C3=O)N1C[C@@H]1N[C@@H]12 [Mitomycin C, mitomycin C]
- XPR1/Glut1 ratio normalized to the control condition: increases the XPR1/Glut1 ratio in a dose-dependant manner
